Experimental data taken from patent US20010014364A1, “Use of stabilized bromine to improve quality and appearance of leafy vegetables or the like” (priority 1997, published 2001).

Columns and labels:
yeast and mold = assay: Yeast and mold (YM) count on leaf lettuce after direct application of halogen solution and during storage; assay type: cell-based; settings: for Yeast and mold (YM) count populations: storage at 4-6° C.; for Log reduction of microbial populations from leaf lettuce surface / Percent reduction of microbial populations from leaf lettuce surface: YM, compared to unwashed control
Procedure: (§1) Solutions of either stabilized sodium hyprobromite or industrial unstabilized sodium hypochlorite were added to “tap” water in order to achieve a 50, 100, or 200 ppm total halogen residual (as chlorine). The “tap” water contained calcium (90 ppm as CaCO3), “M” alkalinity (110 ppm as CaCO3) and magnesium (50 ppm as CaCO3) in deionized water. The “tap” water was buffered at pH 7.5 using borax and monobasic potassium phosphate. Solutions of stabilized sodium hypobromite or unstabilized sodium hypochlorite were applied directly to leaf lettuce by dipping the lettuce in the solutions for 3-minutes. Lettuce was immediately removed, drained for 1-minute, rinsed for 30-seconds with potable water, drained for 1-minute, and then spun dry with a bench-top lettuce spinner. Lettuce was analyzed for microbial populations remaining on the surface and 50-gram portions were stored at 4-6° C. for shelf-life evaluation. Shelf-life was visually judged for changes in color (browning) and odor.

[1] = tested on: aerobic plate count bacteria; assay: Aerobic plate count (APC) bacteria on leaf lettuce after direct application of halogen solution and during storage; assay type: cell-based; settings: for Log reduction of microbial populations from leaf lettuce surface / Percent reduction of microbial populations from leaf lettuce surface: APC, compared to unwashed control; for Aerobic plate count (APC) bacterial populations: storage at 4-6° C.
Procedure: as §1

OCl [Bleach, sodium hypochlorite]
Yeast and mold (YM) count populations (yeast and mold; Day 0, 50 ppm av. Cl2): 2.8 Log10 CFU/g lettuce | Yeast and mold (YM) count populations (yeast and mold; Day 0, 100 ppm av. Cl2): 2.9 Log10 CFU/g lettuce | Yeast and mold (YM) count populations (yeast and mold; Day 0, 200 ppm av. Cl2): 2.7 Log10 CFU/g lettuce | Yeast and mold (YM) count populations (yeast and mold; Day 1, 50 ppm av. Cl2): 2.7 Log10 CFU/g lettuce | Yeast and mold (YM) count populations (yeast and mold; Day 1, 100 ppm av. Cl2): 2.9 Log10 CFU/g lettuce | Yeast and mold (YM) count populations (yeast and mold; Day 1, 200 ppm av. Cl2): 2.7 Log10 CFU/g lettuce | Yeast and mold (YM) count populations (yeast and mold; Day 2, 50 ppm av. Cl2): 2.7 Log10 CFU/g lettuce | Yeast and mold (YM) count populations (yeast and mold; Day 2, 100 ppm av. Cl2): 2.8 Log10 CFU/g lettuce | Yeast and mold (YM) count populations (yeast and mold; Day 2, 200 ppm av. Cl2): 2.8 Log10 CFU/g lettuce | Yeast and mold (YM) count populations (yeast and mold; Day 4, 50 ppm av. Cl2): 4.5 Log10 CFU/g lettuce | Yeast and mold (YM) count populations (yeast and mold; Day 4, 100 ppm av. Cl2): 4.1 Log10 CFU/g lettuce | Yeast and mold (YM) count populations (yeast and mold; Day 4, 200 ppm av. Cl2): 4.4 Log10 CFU/g lettuce | Yeast and mold (YM) count populations (yeast and mold; Day 5, 50 ppm av. Cl2): 3.3 Log10 CFU/g lettuce | Yeast and mold (YM) count populations (yeast and mold; Day 5, 100 ppm av. Cl2): 3.5 Log10 CFU/g lettuce | Yeast and mold (YM) count populations (yeast and mold; Day 5, 200 ppm av. Cl2): 3.0 Log10 CFU/g lettuce | Yeast and mold (YM) count populations (yeast and mold; Day 6, 50 ppm av. Cl2): 3.8 Log10 CFU/g lettuce | Yeast and mold (YM) count populations (yeast and mold; Day 6, 100 ppm av. Cl2): 3.9 Log10 CFU/g lettuce | Yeast and mold (YM) count populations (yeast and mold; Day 6, 200 ppm av. Cl2): 4.5 Log10 CFU/g lettuce | Yeast and mold (YM) count populations (yeast and mold; Day 7, 50 ppm av. Cl2): 3.7 Log10 CFU/g lettuce | Yeast and mold (YM) count populations (yeast and mold; Day 7, 100 ppm av. Cl2): 4.5 Log10 CFU/g lettuce | Yeast and mold (YM) count populations (yeast and mold; Day 7, 200 ppm av. Cl2): 4.0 Log10 CFU/g lettuce | Yeast and mold (YM) count populations (yeast and mold; Day 8, 50 ppm av. Cl2): 4.4 Log10 CFU/g lettuce | Yeast and mold (YM) count populations (yeast and mold; Day 8, 100 ppm av. Cl2): 4.9 Log10 CFU/g lettuce | Yeast and mold (YM) count populations (yeast and mold; Day 8, 200 ppm av. Cl2): 4.4 Log10 CFU/g lettuce | Yeast and mold (YM) count populations (yeast and mold; Day 9, 50 ppm av. Cl2): 4.0 Log10 CFU/g lettuce | Yeast and mold (YM) count populations (yeast and mold; Day 9, 100 ppm av. Cl2): 4.6 Log10 CFU/g lettuce | Yeast and mold (YM) count populations (yeast and mold; Day 9, 200 ppm av. Cl2): 4.2 Log10 CFU/g lettuce | Yeast and mold (YM) count populations (yeast and mold; Day 10, 50 ppm av. Cl2): 4.1 Log10 CFU/g lettuce | Yeast and mold (YM) count populations (yeast and mold; Day 10, 100 ppm av. Cl2): 3.8 Log10 CFU/g lettuce | Yeast and mold (YM) count populations (yeast and mold; Day 10, 200 ppm av. Cl2): 4.5 Log10 CFU/g lettuce | Yeast and mold (YM) count populations (yeast and mold; Day 11, 50 ppm av. Cl2): 4.9 Log10 CFU/g lettuce | Yeast and mold (YM) count populations (yeast and mold; Day 11, 100 ppm av. Cl2): 4.5 Log10 CFU/g lettuce | Yeast and mold (YM) count populations (yeast and mold; Day 11, 200 ppm av. Cl2): 4.6 Log10 CFU/g lettuce | Yeast and mold (YM) count populations (yeast and mold; Day 12, 50 ppm av. Cl2): 5.5 Log10 CFU/g lettuce | Yeast and mold (YM) count populations (yeast and mold; Day 12, 100 ppm av. Cl2): 4.8 Log10 CFU/g lettuce | Yeast and mold (YM) count populations (yeast and mold; Day 12, 200 ppm av. Cl2): 4.8 Log10 CFU/g lettuce | Log reduction of microbial populations from leaf lettuce surface (yeast and mold; 50 ppm av. Cl2): 2.4 Log | Percent reduction of microbial populations from leaf lettuce surface (yeast and mold; 50 ppm av. Cl2): 99.647% | Log reduction of microbial populations from leaf lettuce surface (yeast and mold; 100 ppm av. Cl2): 2.3 Log | Percent reduction of microbial populations from leaf lettuce surface (yeast and mold; 100 ppm av. Cl2): 99.494% | Log reduction of microbial populations from leaf lettuce surface (yeast and mold; 200 ppm av. Cl2): 2.5 Log | Percent reduction of microbial populations from leaf lettuce surface (yeast and mold; 200 ppm av. Cl2): 97.729% | Yeasts and molds reduced (yeast and mold; lettuce washed with the halogen solution): about 2 log | Log reduction of microbial populations from leaf lettuce surface ([1]; 50 ppm av. Cl2): 2.1 Log | Percent reduction of microbial populations from leaf lettuce surface ([1]; 50 ppm av. Cl2): 99.200% | Log reduction of microbial populations from leaf lettuce surface ([1]; 100 ppm av. Cl2): 2.1 Log | Percent reduction of microbial populations from leaf lettuce surface ([1]; 100 ppm av. Cl2): 99.120% | Log reduction of microbial populations from leaf lettuce surface ([1]; 200 ppm av. Cl2): 2.1 Log | Percent reduction of microbial populations from leaf lettuce surface ([1]; 200 ppm av. Cl2): 99.200% | Aerobic plate count (APC) bacterial populations ([1]; Day 0, 50 ppm av. Cl2): 5.3 Log10 CFU/g lettuce | Aerobic plate count (APC) bacterial populations ([1]; Day 0, 100 ppm av. Cl2): 5.3 Log10 CFU/g lettuce | Aerobic plate count (APC) bacterial populations ([1]; Day 0, 200 ppm av. Cl2): 5.3 Log10 CFU/g lettuce | Aerobic plate count (APC) bacterial populations ([1]; Day 1, 50 ppm av. Cl2): 5.4 Log10 CFU/g lettuce | Aerobic plate count (APC) bacterial populations ([1]; Day 1, 100 ppm av. Cl2): 5.3 Log10 CFU/g lettuce | Aerobic plate count (APC) bacterial populations ([1]; Day 1, 200 ppm av. Cl2): 5.5 Log10 CFU/g lettuce | Aerobic plate count (APC) bacterial populations ([1]; Day 2, 50 ppm av. Cl2): 6.4 Log10 CFU/g lettuce | Aerobic plate count (APC) bacterial populations ([1]; Day 2, 100 ppm av. Cl2): 6.6 Log10 CFU/g lettuce | Aerobic plate count (APC) bacterial populations ([1]; Day 2, 200 ppm av. Cl2): 7.0 Log10 CFU/g lettuce | Aerobic plate count (APC) bacterial populations ([1]; Day 4, 50 ppm av. Cl2): 6.5 Log10 CFU/g lettuce | Aerobic plate count (APC) bacterial populations ([1]; Day 4, 100 ppm av. Cl2): 6.6 Log10 CFU/g lettuce | Aerobic plate count (APC) bacterial populations ([1]; Day 4, 200 ppm av. Cl2): 7.5 Log10 CFU/g lettuce | Aerobic plate count (APC) bacterial populations ([1]; Day 5, 50 ppm av. Cl2): 6.0 Log10 CFU/g lettuce | Aerobic plate count (APC) bacterial populations ([1]; Day 5, 100 ppm av. Cl2): 6.4 Log10 CFU/g lettuce | Aerobic plate count (APC) bacterial populations ([1]; Day 5, 200 ppm av. Cl2): 6.6 Log10 CFU/g lettuce | Aerobic plate count (APC) bacterial populations ([1]; Day 6, 50 ppm av. Cl2): 6.6 Log10 CFU/g lettuce | Aerobic plate count (APC) bacterial populations ([1]; Day 6, 100 ppm av. Cl2): 6.6 Log10 CFU/g lettuce | Aerobic plate count (APC) bacterial populations ([1]; Day 6, 200 ppm av. Cl2): 8.1 Log10 CFU/g lettuce | Aerobic plate count (APC) bacterial populations ([1]; Day 7, 50 ppm av. Cl2): 7.2 Log10 CFU/g lettuce | Aerobic plate count (APC) bacterial populations ([1]; Day 7, 100 ppm av. Cl2): 7.2 Log10 CFU/g lettuce | Aerobic plate count (APC) bacterial populations ([1]; Day 7, 200 ppm av. Cl2): 7.7 Log10 CFU/g lettuce | Aerobic plate count (APC) bacterial populations ([1]; Day 8, 50 ppm av. Cl2): 7.7 Log10 CFU/g lettuce | Aerobic plate count (APC) bacterial populations ([1]; Day 8, 100 ppm av. Cl2): 8.1 Log10 CFU/g lettuce | Aerobic plate count (APC) bacterial populations ([1]; Day 8, 200 ppm av. Cl2): 7.6 Log10 CFU/g lettuce | Aerobic plate count (APC) bacterial populations ([1]; Day 9, 50 ppm av. Cl2): 7.6 Log10 CFU/g lettuce | Aerobic plate count (APC) bacterial populations ([1]; Day 9, 100 ppm av. Cl2): 7.4 Log10 CFU/g lettuce | Aerobic plate count (APC) bacterial populations ([1]; Day 9, 200 ppm av. Cl2): 7.5 Log10 CFU/g lettuce | Aerobic plate count (APC) bacterial populations ([1]; Day 10, 50 ppm av. Cl2): 7.6 Log10 CFU/g lettuce | Aerobic plate count (APC) bacterial populations ([1]; Day 10, 100 ppm av. Cl2): 7.0 Log10 CFU/g lettuce | Aerobic plate count (APC) bacterial populations ([1]; Day 10, 200 ppm av. Cl2): 8.6 Log10 CFU/g lettuce | Aerobic plate count (APC) bacterial populations ([1]; Day 11, 50 ppm av. Cl2): 8.0 Log10 CFU/g lettuce | Aerobic plate count (APC) bacterial populations ([1]; Day 11, 100 ppm av. Cl2): 7.9 Log10 CFU/g lettuce | Aerobic plate count (APC) bacterial populations ([1]; Day 11, 200 ppm av. Cl2): 8.5 Log10 CFU/g lettuce | Aerobic plate count (APC) bacterial populations ([1]; Day 12, 50 ppm av. Cl2): 8.3 Log10 CFU/g lettuce | Aerobic plate count (APC) bacterial populations ([1]; Day 12, 100 ppm av. Cl2): 8.0 Log10 CFU/g lettuce | Aerobic plate count (APC) bacterial populations ([1]; Day 12, 200 ppm av. Cl2): 8.4 Log10 CFU/g lettuce
